Some test systems named below: ACHN renal; CCRF-CEM leukemia; EKVX NSCLC; HCC-2998 colon; NCI-H226 lung; NCI-H522 lung; OVCAR-3 ovarian; PC-3 prostate; SK-MEL-5 melanoma; SNB-19 CNS.
Holding throughout (experiment): NCI anticancer screen, dose series, 48 h

Several values for one entry are separate records, joined by “and”; a condition that tells them apart may be missing. Equal values may be shown once.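 Results reflect a 48-hour exposure of cells in 96-well plates to compound at five concentrations. Abbreviation: GI50, concentration required for 50% inhibition of growth. TGI marks complete inhibition of growth.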 A value given as a limit tells only on which side of the number the result lay.

Regarding `COc1ccc(C2c3c(-c4ccccc4)nn(-c4ccccc4)c3Oc3ncn4nc(CC#N)nc4c32)cc1OC` (stereo unspecified), the TGI was > 100 µM and 16.1 µM with ACHN renal; more than 100 µM in the test with CCRF-CEM leukemia; more than 76.3 µM with EKVX NSCLC; more than 100 µM in the test on HCC-2998 colon; 39 µM and 6.28 µM in the test with NCI-H226 lung; > 100 µM and 15.7 µM in the test on NCI-H522 lung. The TGI in the test on OVCAR-3 ovarian was more than 100 µM; in the test with PC-3 prostate it was > 100 µM and 49.1 µM; in the test on SK-MEL-5 melanoma, more than 100 µM; with SNB-19 CNS, 73.7 µM and 33.7 µM. The GI50 with CCRF-CEM leukemia was 28.6 µM and > 100 µM; with HCC-2998 colon, > 100 µM and 22.6 µM; with NCI-H226 lung, 15.9 µM and 2.09 µM; with NCI-H522 lung it was 40.2 µM and 4.62 µM; with OVCAR-3 ovarian it was 75.4 µM and 10.3 µM; in the test with PC-3 prostate, 32600 nM and 12300 nM. Further, the GI50 in the test with SNB-19 CNS was 23.6 µM and 4.62 µM.
With `Nc1c2ccccc2nc2ccccc12` (tested in a mixture with another compound), the GI50 in the test on ACHN renal is 779 nM; in the test with CCRF-CEM leukemia, 2.72 µM; in the test with EKVX NSCLC it was 2.01 µM; with HCC-2998 colon it was 1.85 µM; in the test with NCI-H226 lung, 1.17 µM; in the test on NCI-H522 lung, 1.17 µM. Besides, the GI50 is 2.29 µM in the test with OVCAR-3 ovarian, 2440 nM in the test on PC-3 prostate, 1600 nM in the test with SK-MEL-5 melanoma and 2.64 µM in the test on SNB-19 CNS. Also, the TGI stood at 8.72 µM with ACHN renal; 77.3 µM in the test on CCRF-CEM leukemia; 7.65 µM in the test with EKVX NSCLC; 4.6 µM in the test on HCC-2998 colon; 3.03 µM with NCI-H226 lung; 2.73 µM in the test on NCI-H522 lung. Also, the TGI in the test with OVCAR-3 ovarian was 6.15 µM; in the test on PC-3 prostate, 11.1 µM; in the test with SK-MEL-5 melanoma, 3.01 µM; in the test with SNB-19 CNS, 15.7 µM.
Regarding `CC#CC(=O)N1CC[C@@H](n2c(=O)n(-c3ccc(Oc4ccccc4)cc3)c3c(N)ncnc32)C1`, the GI50 with ACHN renal is 21400 nM; in the test on CCRF-CEM leukemia it was 26.2 µM; with EKVX NSCLC, 19.7 µM; in the test with HCC-2998 colon it was 42.5 µM; with NCI-H226 lung it was 23.1 µM; in the test with NCI-H522 lung it was 10.8 µM. Further, the GI50 in the test with OVCAR-3 ovarian was 25.7 µM; with PC-3 prostate, 29100 nM; in the test with SK-MEL-5 melanoma, 16900 nM; in the test on SNB-19 CNS, 37.4 µM. Also, the TGI in the test with ACHN renal was more than 100 µM; with CCRF-CEM leukemia it was more than 100 µM; in the test on EKVX NSCLC, more than 100 µM; in the test on HCC-2998 colon, more than 100 µM; in the test on NCI-H226 lung, more than 100 µM; in the test on NCI-H522 lung, 92.7 µM. Further, the TGI was more than 100 µM in the test with OVCAR-3 ovarian, more than 100 µM in the test on PC-3 prostate, 38.8 µM in the test with SK-MEL-5 melanoma and more than 100 µM in the test on SNB-19 CNS.
As to `N#Cc1nn(-c2cc(=O)[nH]c3ccc(Br)cc23)c(N)c1C#N`, the GI50 in the test with ACHN renal was more than 100000 nM; in the test with CCRF-CEM leukemia, more than 100 µM; in the test on EKVX NSCLC, 4.6 µM; in the test on HCC-2998 colon, more than 100 µM; in the test on NCI-H226 lung it was more than 100 µM; in the test with NCI-H522 lung it was 22.7 µM. In addition, the GI50 in the test with OVCAR-3 ovarian is more than 100 µM; in the test with PC-3 prostate it was more than 100000 nM; in the test on SK-MEL-5 melanoma, more than 100000 nM; in the test on SNB-19 CNS, more than 100 µM. In addition, the TGI in the test with ACHN renal is more than 100 µM; in the test on CCRF-CEM leukemia, more than 100 µM; with EKVX NSCLC, more than 100 µM; with HCC-2998 colon, more than 100 µM; in the test on NCI-H226 lung it was more than 100 µM; in the test on NCI-H522 lung, 86.4 µM. Also, the TGI in the test with OVCAR-3 ovarian, in the test with PC-3 prostate, in the test with SK-MEL-5 melanoma and with SNB-19 CNS was more than 100 µM throughout.
In the case of `C=C(C)[C@@H]1CC[C@]2(C(N)=O)CC[C@]3(C)[C@H](CC[C@@H]4[C@@]5(C)C/C(=C/c6cccnc6)[C@H](O)C(C)(C)[C@@H]5CC[C@]43C)[C@@H]12`, the GI50 in the test on ACHN renal was 3530 nM; in the test on CCRF-CEM leukemia, 3.86 µM; with EKVX NSCLC, 4.03 µM; with HCC-2998 colon, 4.66 µM; in the test on NCI-H226 lung it was 4.98 µM; in the test with NCI-H522 lung it was 3.93 µM. The GI50 in the test with OVCAR-3 ovarian was 5.02 µM; in the test on PC-3 prostate, 2940 nM; with SK-MEL-5 melanoma, 3230 nM; with SNB-19 CNS, 6.02 µM. Further, the TGI in the test with ACHN renal, in the test with CCRF-CEM leukemia, with EKVX NSCLC, with HCC-2998 colon, with NCI-H226 lung and in the test on NCI-H522 lung was more than 100 µM in each case. Moreover, the TGI was more than 100 µM in the test with OVCAR-3 ovarian, more than 100 µM with PC-3 prostate, 12.4 µM with SK-MEL-5 melanoma and more than 100 µM in the test on SNB-19 CNS.
Take `COc1cnc2c(c1)C(=O)c1c-2n(CCCNC(C)C)c(=O)c2cc([N+](=O)[O-])ccc12`: the GI50 in the test on ACHN renal is 26.7 nM; in the test on CCRF-CEM leukemia, 0.029 µM; with EKVX NSCLC, 0.134 µM; in the test on HCC-2998 colon it was 0.109 µM; in the test on NCI-H226 lung, 0.0651 µM; in the test on NCI-H522 lung it was 0.0233 µM. Further, the GI50 in the test with OVCAR-3 ovarian is 0.0824 µM; in the test on PC-3 prostate, 211 nM; in the test with SK-MEL-5 melanoma it was 46.1 nM; with SNB-19 CNS, 0.0423 µM. For the same compound, the TGI in the test with ACHN renal is 0.121 µM; with CCRF-CEM leukemia it was 0.658 µM; in the test on EKVX NSCLC, 0.706 µM; in the test on HCC-2998 colon, 0.269 µM; with NCI-H226 lung, 0.798 µM; with NCI-H522 lung, 0.158 µM. Besides, the TGI in the test on OVCAR-3 ovarian amounted to 0.247 µM; with PC-3 prostate, 3.07 µM; in the test with SK-MEL-5 melanoma, 0.177 µM; in the test with SNB-19 CNS, 0.896 µM.
For the compound `C/C(=C\c1ccn(-c2ccc(N)cc2F)n1)[C@@H]1C[C@@H]2O[C@]2(C)CCC[C@H](C)[C@H](O)[C@@H](C)C(=O)C(C)(C)[C@@H](O)CC(=O)O1`, the GI50 in the test on ACHN renal was 202 nM; with CCRF-CEM leukemia it was 0.0197 µM; with EKVX NSCLC it was 0.36 µM; in the test on HCC-2998 colon it was 0.0347 µM; in the test on NCI-H226 lung, 5.45 µM; in the test on NCI-H522 lung, 0.0255 µM. For the same compound, the GI50 was 0.0166 µM in the test with OVCAR-3 ovarian, 25.6 nM in the test with PC-3 prostate, 19.9 nM with SK-MEL-5 melanoma and 0.242 µM in the test on SNB-19 CNS. The TGI in the test on ACHN renal is more than 50 µM; with CCRF-CEM leukemia it was more than 50 µM; in the test with EKVX NSCLC, more than 50 µM; with HCC-2998 colon, more than 10.6 µM; in the test with NCI-H226 lung, more than 50 µM; with NCI-H522 lung, 0.171 µM. In addition, the TGI was 0.159 µM in the test on OVCAR-3 ovarian, more than 50 µM in the test with PC-3 prostate and more than 50 µM in the test on SNB-19 CNS.

The values are drawn from PubChem BioAssay (NCI).
